The values below come from patent publication US20250214977A1, “STAT6 INHIBITORS AND USES THEREOF” (Kymera Therapeutics, Inc., priority 2024, published 2025).

Structures are written as SMILES.

The test system of this test is Phosphorylation of STAT6 in human PBMC (CD19+ B cells). As to the kind of experiment: Phosphorylated STAT6 (pSTAT6) flow cytometry assay in human PBMC, IL-4 stimulated. The test is classed as cell-based. The settings on record: compound 1 hour, 1 ng/ml IL-4 for 15 minutes, read-out: STAT6 IL4 pSTAT6 assay in PBMC: Average IC50. Summed up: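 Human PBMC preincubated 1 h at 37 °C with compound (9-point 1:3 series, top up to 30 μM), then stimulated with 1 ng/ml IL-4 for 15 min. After fixation, methanol permeabilization and staining, pSTAT6 quantified in CD19+ B cells by flow cytometry; four-parameter fit of inhibition.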
For orientation: Flow cytometry measures light scatter and fluorescence of single cells or particles in a stream.
One may read the IC50 as the concentration at which inhibition is half-maximal. With `CC(=O)NC(Cn1ccnn1)C(=O)N1CCC=C(c2ccc3oc(C(=O)N(C)C)cc3c2)C1` (stereo not drawn) [Example I-179], the IC50 is greater than 100 µM.
Regarding `C#Cc1cc(C2=CCCN(C(=O)CCn3ccnn3)C2)cc2cc(C(=O)N(C)C)oc12` [Example I-23], the half-inhibitory concentration (IC50) is greater than 100 µM.
Regarding `CN(C)C(=O)c1cc2cc(C3=CCCN(C(=O)Cc4cccc5ccccc45)C3)ccc2o1` [Example I-294], the IC50 was greater than 100 µM.
As for `CN(C)C(=O)c1cc2cc(C3CCC(CO)N(C(=O)CCn4ccnn4)C3)ccc2o1` (stereo not drawn) [Example I-154], the IC50 is greater than 100 µM.
Regarding `CC(=O)NC(Cn1ccnn1)C(=O)N1CCC=C(c2ccc3oc(C(=O)N(C)C)cc3c2)C1` (stereo not drawn) [Example I-178], the IC50 was greater than 100 µM.
Under `Cc1cccc(-c2ncccc2C(=O)N2CCC=C(c3ccc4cc(C(=O)N(C)C)[nH]c4c3)C2)c1` [Example I-86] stands greater than 100 µM; under `CN(C)C(=O)c1cc2ccc(C3=CCCN(C(=O)C4(c5ccccc5)CCC(=O)NC4)C3)cc2[nH]1` (stereo not drawn) [Example I-87], 10 to 100 µM.
Under `COC(=O)c1cnn(-c2cc(C3=CCCN(C(=O)CCn4ccnn4)C3)cc3cc(C(=O)N(C)C)oc23)c1` [Example I-186] stands greater than 100 µM; under `CN(C)C(=O)c1cc2ccc(C3=CCCN(C(=O)c4cccnc4-c4ccc(F)c(F)c4)C3)cc2[nH]1` [Example I-137], greater than 100 µM; under `CCC[C@@H](C(=O)N1CCC=C(c2ccc3cc(C(=O)N(C)C)[nH]c3c2)C1)N1Cc2ccccc2C1=O` [Example I-96], 10 to 100 µM.
Consider `COc1ccc(Cn2cc(CC(=O)N3CCC=C(c4ccc5cc(C(=O)N(C)C)[nH]c5c4)C3)cn2)cc1` [Example I-136], for which the half-maximal inhibitory concentration (IC50) was greater than 100 µM.
On to `CN(C)C(=O)c1cc2ccc(C3=CCCN(C(=O)c4cc(=O)c(OCc5ccccc5)c[nH]4)C3)cc2[nH]1` [Example I-110], for which the IC50 was greater than 100 µM.
Take `CN(C)C(=O)c1cc2ccc(C3=CCCN(C(=O)C4(C#N)CC4)C3)cc2[nH]1` [Example I-29]: the IC50 was in the range of 10 to 100 µM.
With `CN(C)C(=O)c1cc2ccc(C3=CCCN(C(=O)CCn4nncc4CO)C3)cc2[nH]1` [Example I-13], the IC50 lay within 0.1 to 1 µM.
For the compound `CN(C)C(=O)c1cc2cc(C3=CCCN(C(=O)CCc4cn5cccnc5n4)C3)ccc2o1` [Example I-281], the IC50 is greater than 100 µM.
Under `CNC(=O)c1cc2cc(C3=CCCN(C(=O)CCn4ccnn4)C3)ccc2o1` [Example I-236] stands greater than 100 µM.
Under `CN(C)C(=O)c1cc2ccc(C3=CCCN(C(=O)c4n[nH]cc4I)C3)cc2[nH]1` [Example I-33] stands 10 to 100 µM; under `CN(C)C(=O)c1cc2ccc(C3=CCCN(C(=O)C4CCC4C(=O)O)C3)cc2[nH]1` (stereo not drawn) [Example I-39], 10 to 100 µM; under `CN(C)C(=O)c1cc2ccc(C3=CCCN(C(=O)c4ccc5c(n4)OCCO5)C3)cc2[nH]1` [Example I-58], greater than 100 µM.
`CN(C)C(=O)c1cc2cc(C3=CCCN(C(=O)CCc4ccncc4)C3)ccc2o1` [Example I-313]: the IC50 was greater than 100 µM.
Take `CC1CCCN(C(=O)c2cc3ccc(C4=CCCN(C(=O)CCn5ccnn5)C4)cc3[nH]2)C1` (stereo not drawn) [Example I-127]: the IC50 is 10 to 100 µM.
For the compound `O=C(CCn1ccnn1)N1CCC=C(c2ccc3cc(C(=O)N4CCCC4)[nH]c3c2)C1` [Example I-124], the 50% inhibitory concentration (IC50) was greater than 100 µM.
With `CN(C)C(=O)c1cc2ccc(C3=CCCN(C(=O)C(c4ccc(F)cc4)c4ccc(F)cc4)C3)cc2[nH]1` [Example I-160], the concentration for half-maximal inhibition (IC50) is greater than 100 µM.
The value for `CN(C)C(=O)c1cc2ccc(C3=CCCN(C(=O)CCc4ccccc4C#N)C3)cc2[nH]1` [Example I-64] was greater than 100 µM; that for `CN(C)C(=O)c1cc2ccc(C3=CCCN(C(=O)c4nonc4C4CC4)C3)cc2[nH]1` [Example I-44] was 10 to 100 µM.
In the case of `CN(C)C(=O)c1cc2cc(C3=CCCN(C(=O)CCn4cnc5ccccc54)C3)ccc2o1` [Example I-265], the IC50 is greater than 100 µM.
Consider `COc1ccc(CC(=O)N2CCC=C(c3ccc4oc(C(=O)N(C)C)cc4c3)C2)cc1C#N` [Example I-256], for which the IC50 was greater than 100 µM.
Turning to `COC(=O)CCC#Cc1cc(C2=CCCN(C(=O)C3Cc4ccccc4CN3C=O)C2)cc2cc(C(=O)N(C)C)oc12` (stereo not drawn) [Example I-184], the IC50 was in the range of 10 to 100 µM.
As for `CN(C)C(=O)c1cc2cc(C3=CCCN(C(=O)Cn4ncc5ccccc54)C3)ccc2o1` [Example I-284], the half-maximal inhibitory concentration (IC50) was greater than 100 µM.
The value for `CN(C)C(=O)c1cc2cc(C3=CCCN(C(=O)C4Cc5ccccc5CN4C)C3)ccc2o1` (stereo not drawn) [Example I-285] was greater than 100 µM; that for `Cc1nc(-c2ccccc2F)c(C(=O)N2CCC=C(c3ccc4cc(C(=O)N(C)C)[nH]c4c3)C2)o1` [Example I-89] was greater than 100 µM; that for `CN(C)C(=O)c1ccc2c(C3=CCCN(C(=O)CCn4ccnn4)C3)c[nH]c2c1` [Example I-317] was greater than 100 µM.
For `CC(Oc1ccccn1)C(=O)N1CCC=C(c2ccc3cc(C(=O)N(C)C)[nH]c3c2)C1` (stereo not drawn) [Example I-54], the IC50 was in the range of 10 to 100 µM.
On to `CN(C)C(=O)c1cc2ccc(C3=CCCN(C(=O)C4ON=C(c5ccccc5)O4)C3)cc2[nH]1` (stereo not drawn) [Example I-71], for which the IC50 was in the range of 10 to 100 µM.
For the compound `CN(C)C(=O)c1cc2ccc(C3=CCCN(C(=O)Cc4cccc(OCc5ccccc5)c4)C3)cc2[nH]1` [Example I-107], the half-maximal inhibitory concentration (IC50) was 0.1 to 1 µM.
As to `Cc1cn(CCC(=O)N2CCC=C(c3ccc4cc(C(=O)N(C)C)[nH]c4c3)C2)nn1` [Example I-319], the IC50 is greater than 100 µM.
In the case of `CN(C)C(=O)c1cc2cc(C3=CCCN(C(=O)CN4CCc5ccccc5C4)C3)ccc2o1` [Example I-296], the half-inhibitory concentration (IC50) was greater than 100 µM.
As to `CN(C)C(=O)c1cc2ccc(C3=CCCN(C(=O)c4ccc(-c5ccc(Cl)cc5)cc4)C3)cc2[nH]1` [Example I-83], the IC50 lay within 10 to 100 µM.
Take `CN(C)C(=O)c1cc2cc(C3=CCCN(C(=O)CCn4ccnn4)C3)cnc2[nH]1` [Example I-222]: the IC50 fell in the range of 10 to 100 µM.
The value for `CN(C)C(=O)c1cc2ccc(C3=CCCN(C(=O)CCN4CCOC4=O)C3)cc2[nH]1` [Example I-134] was greater than 100 µM; that for `CC(=O)N1CCc2ccc(CC(=O)N3CCC=C(c4ccc5oc(C(=O)N(C)C)cc5c4)C3)cc2C1` [Example I-193] was greater than 100 µM.
For the compound `CN(C)C(=O)c1cc2cc(C3=CCCN(C(=O)CCn4ccnn4)C3)ccc2[nH]1` [Example I-308], the IC50 was greater than 100 µM.
For `CN(C)C(=O)c1cc2ccc(C3=CCCN(C(=O)CC(C)(O)C(F)(F)F)C3)cc2[nH]1` (stereo not drawn) [Example I-46], the IC50 was in the range of 10 to 100 µM.
As to `COCc1oncc1C(=O)N1CCC=C(c2ccc3cc(C(=O)N(C)C)[nH]c3c2)C1` [Example I-145], the IC50 was greater than 100 µM.
As for `COC(=O)c1ccc(CCC(=O)N2CCC=C(c3ccc4cc(C(=O)N(C)C)[nH]c4c3)C2)[nH]1` [Example I-68], the IC50 lay within 10 to 100 µM.
Under `CNc1ccc(-c2cc(C3=CCCN(C(=O)CCn4ccnn4)C3)cc3[nH]c(C(=O)N(C)C)cc23)c(Cl)c1` [Example I-118] stands less than 0.1 µM.
Under `CC(=O)OCC(C(=O)N1CCC=C(c2ccc3cc(C(=O)N(C)C)[nH]c3c2)C1)c1ccccc1` (stereo not drawn) [Example I-73] stands 10 to 100 µM; under `CC(=O)N1CCC(c2cc(C3=CCCN(C(=O)CCn4ccnn4)C3)cc3cc(C(=O)N(C)C)oc23)CC1` [Example I-190], 10 to 100 µM.
Regarding `COC(=O)c1ccc(OCC(=O)N2CCC=C(c3ccc4cc(C(=O)N(C)C)[nH]c4c3)C2)cc1` [Example I-142], the half-maximal inhibitory concentration (IC50) was greater than 100 µM.
Under `CN(C)C(=O)c1cc2cc(C3=CCCN(C(=O)CCc4ncccn4)C3)ccc2o1` [Example I-231] stands greater than 100 µM.
Regarding `CN(C)C(=O)c1cc2cc(C3=CCCN(C(=O)Cc4ccc5c(c4)CN(C(=O)OC(C)(C)C)CC5)C3)ccc2o1` [Example I-259], the half-maximal inhibitory concentration (IC50) was greater than 100 µM.
For `CC(=O)Nc1ccc(CC(=O)N2CCC=C(c3ccc4oc(C(=O)N(C)C)cc4c3)C2)cc1` [Example I-287], the IC50 is greater than 100 µM.
Take `CN(C)C(=O)c1cc2cc(C3=CCCN(C(=O)CCc4cccnc4)C3)ccc2o1` [Example I-301]: the IC50 is greater than 100 µM.
For `CN(C)C(=O)c1cc2ccc(C3=CCCN(C(=O)CCn4ccnn4)C3)c(F)c2[nH]1` [Example I-304], the IC50 was less than 0.1 µM.
Regarding `CC(C(=O)N1CCC=C(c2ccc3cc(C(=O)N(C)C)[nH]c3c2)C1)n1ccccc1=O` (stereo not drawn) [Example I-53], the half-maximal inhibitory concentration (IC50) is 1 to 10 µM.
The value for `CN(C)C(=O)c1cc2cc(C3=CCCN(C(=O)CCn4ccnn4)C3)cc(N3CCNCC3)c2o1` [Example I-191] was greater than 100 µM; that for `CNCc1cccc2c1CC(C(=O)N1CCC=C(c3ccc4oc(C(=O)N(C)C)cc4c3)C1)N(C=O)C2` (stereo not drawn) [Example I-148] was greater than 100 µM; that for `CN(C)C(=O)c1cc2cc(C3=CCCN(C(=O)CCn4ccnc4)C3)ccc2o1` [Example I-310] was greater than 100 µM.
`CN(C)C(=O)c1cc2ccc(C3=CCCN(C(=O)C4CC(O)C4)C3)cc2[nH]1` (stereo not drawn) [Example I-28]: the 50% inhibitory concentration (IC50) was 10 to 100 µM.
Turning to `CN(C)C(=O)c1cc2cc(C3=CCCN(C(=O)C4Cc5c(N)cccc5CN4C=O)C3)ccc2o1` (stereo not drawn) [Example I-8], the IC50 was in the range of 0.1 to 1 µM.
Take `C[C@@H](O)C(=O)N1CCC=C(c2ccc3cc(C(=O)N(C)C)[nH]c3c2)C1` [Example I-24]: the 50% inhibitory concentration (IC50) was in the range of 10 to 100 µM.
In the case of `CN(C)C(=O)c1cc2cc(C3=CCCN(C(=O)CCc4cn5ccccc5n4)C3)ccc2o1` [Example I-251], the IC50 was greater than 100 µM.
Consider `CNc1ccc(-c2cc(C3=CCCN(C(=O)CCn4ccnn4)C3)cc3[nH]c(C(=O)N(C)C)cc23)c(C)c1` [Example I-114], for which the IC50 was in the range of 0.1 to 1 µM.
As for `CN(C)C(=O)c1cc2ccc(C3=CCCN(C(=O)c4[nH]nc5c4CS(=O)(=O)C5)C3)cc2[nH]1` [Example I-57], the IC50 was in the range of 10 to 100 µM.
With `CN(C)C(=O)c1cc2ccc(C3=CCCN(C(=O)CCCn4c(=O)[nH]c5ccccc54)C3)cc2[nH]1` [Example I-85], the IC50 is greater than 100 µM.
Turning to `CN(C)C(=O)c1cc2cc(C3=CCCN(C(=O)Cc4ccc5ncccc5c4)C3)ccc2o1` [Example I-273], the IC50 was greater than 100 µM.
